Source: patent US9399626B2, “2-thiopyrimidinones” (Pfizer Inc., priority 2011, dated 2016)
Counter-ions that a name gives are not always drawn.

Molecular target: T1, MPO (purified from human polynuclear leukocytes) (Homo sapiens, UniProt P05164)
T1 construct: purified from human polynuclear leukocytes; purchased Calbiochem/EMD Biosciences; host or cells: human polynuclear leukocytes (natural source)
Experiment: MPO Amplex Red Activity Assay
Format: biochemical
Details: Table 1, 2 μM H2O2, pH 7.4
How it was run: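 Potency is given as kinact/KI: kobs values from 600 s progress curves, minus the uninhibited rate, are fit against inhibitor concentration. Reactions use 2 μM H2O2, 30 μM Amplex Red, pH 7.4 phosphate buffer with NaCl, DTPA and 2% DMSO, started with […] human MPO. Readout is resorufin fluorescence, catalase background subtracted.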

T1 sequence (P05164 279-745 limits assumed): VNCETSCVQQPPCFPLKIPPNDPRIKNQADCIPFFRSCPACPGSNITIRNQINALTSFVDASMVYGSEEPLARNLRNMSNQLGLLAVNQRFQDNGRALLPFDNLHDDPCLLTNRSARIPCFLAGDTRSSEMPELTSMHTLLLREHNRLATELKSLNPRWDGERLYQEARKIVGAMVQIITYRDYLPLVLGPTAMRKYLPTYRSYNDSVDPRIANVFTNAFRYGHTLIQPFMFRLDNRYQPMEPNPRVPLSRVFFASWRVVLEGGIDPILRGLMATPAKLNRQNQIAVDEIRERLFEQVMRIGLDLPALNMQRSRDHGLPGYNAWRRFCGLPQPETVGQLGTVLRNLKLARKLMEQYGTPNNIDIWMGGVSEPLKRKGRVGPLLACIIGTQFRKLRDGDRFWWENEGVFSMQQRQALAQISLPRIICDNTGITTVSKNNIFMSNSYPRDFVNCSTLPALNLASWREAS
T1 sequence (P05164 165-273 limits assumed): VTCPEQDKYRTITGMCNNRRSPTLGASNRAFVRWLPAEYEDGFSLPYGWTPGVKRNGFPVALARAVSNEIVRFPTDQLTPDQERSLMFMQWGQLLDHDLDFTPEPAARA

Row | MPO kinact/Ki | Compound
1 | 5130 1/s per M | CNCCn1c(-c2ccc(OC)cc2OC)cc(=O)[nH]c1=S [Example 177, 6-(2,4-dimethoxyphenyl)-1-[2-(methylamino)ethyl]-2-thioxo-2,3-dihydropyrimidin-4(1H)-one formate]
2 | 3700 1/s per M | COc1ccc(-c2cc(=O)[nH]c(=S)n2CCNS(C)(=O)=O)c(OC)c1 [Example 257, N-{2-[6-(2,4-dimethoxyphenyl)-4-oxo-2-thioxo-3,4-dihydropyrimidin-1(2H)-yl]ethyl}methanesulfonamide]
3 | 2160 1/s per M | COc1ccc(-c2cc(=O)[nH]c(=S)n2C[C@H](C)N)c(OC)c1 [Example 176, 1-[(2S)-2-aminopropyl]-6-(2,4-dimethoxyphenyl)-2-thioxo-2,3-dihydropyrimidin-4(1H)-one hydrochloride]
4 | 6930 1/s per M | COc1ccc(Cl)cc1-c1cc(=O)[nH]c(=S)n1CCCO [Example 94, 6-(5-chloro-2-methoxyphenyl)-1-(3-hydroxypropyl)-2-thioxo-2,3-dihydropyrimidin-4(1H)-one]
5 | 3280 1/s per M | COc1ccc(-c2cc(=O)[nH]c(=S)n2CC(C)(C)CO)c(OC)c1 [Example 224, 6-(2,4-dimethoxyphenyl)-1-(3-hydroxy-2,2-dimethylpropyl)-2-thioxo-2,3-dihydropyrimidin-4(1H)-one]
6 | 3570 1/s per M | COCCn1c(-c2ccc(OC)c(OC)c2OC)cc(=O)[nH]c1=S [Example 343, 1-(2-methoxyethyl)-2-thioxo-6-(2,3,4-trimethoxyphenyl)-2,3-dihydropyrimidin-4(1H)-one]
7 | 4340 1/s per M | COc1ccc(-c2cc(=O)[nH]c(=S)n2CCNC(=O)[C@@H](N)C(C)C)c(OC)c1 [Example 263, N-{2-[6-(2,4-dimethoxyphenyl)-4-oxo-2-thioxo-3,4-dihydropyrimidin-1(2H)-yl]ethyl}-L-valinamide trifluoroacetate]
8 | 13200 1/s per M | COCCn1c(-c2cc(C(C)C)ccc2OC)cc(=O)[nH]c1=S [Example 337, 6-(5-isopropyl-2-methoxyphenyl)-1-(2-methoxyethyl)-2-thioxo-2,3-dihydropyrimidin-4(1H)-one]
9 | 3450 1/s per M | COc1ccc(-c2cc(=O)[nH]c(=S)n2C[C@H](O)CO)c(OC)c1 [Example 203, 1-[(2S)-2,3-dihydroxypropyl]-6-(2,4-dimethoxyphenyl)-2-thioxo-2,3-dihydropyrimidin-4(1H)-one]
10 | 2230 1/s per M | COCCn1c(-c2nc(C)ccc2OC)cc(=O)[nH]c1=S [Example 49, 1-(2-methoxyethyl)-6-(3-methoxy-6-methylpyridin-2-yl)-2-thioxo-2,3-dihydropyrimidin-4(1H)-one]
11 | 10800 1/s per M | CNCCCn1c(-c2ccc(OC)cc2OC)cc(=O)[nH]c1=S [Example 192, 6-(2,4-dimethoxyphenyl)-1-[3-(methylamino)propyl]-2-thioxo-2,3-dihydropyrimidin-4(1H)-one hydrochloride]
12 | 8280 1/s per M | COc1cc(OC)c(-c2cc(=O)[nH]c(=S)n2CCO)cc1OC [Example 202, 1-(2-hydroxyethyl)-2-thioxo-6-(2,4,5-trimethoxyphenyl)-2,3-dihydropyrimidin-4(1H)-one]
13 | 6520 1/s per M | COc1ccc(-c2cc(=O)[nH]c(=S)n2CCNC(=O)[C@H](C)N)c(OC)c1 [Example 256, N-{2-[6-(2,4-dimethoxyphenyl)-4-oxo-2-thioxo-3,4-dihydropyrimidin-1(2H)-yl]ethyl}-L-alaninamide trifluoroacetate]
14 | 10500 1/s per M | COc1cc(OC)c(-c2cc(=O)[nH]c(=S)n2CCCN=C(N)N)cc1OC [Example 141, 2-{3-[4-oxo-2-thioxo-6-(2,4,5-trimethoxyphenyl)-3,4-dihydropyrimidin-1(2H)-yl]propyl} guanidine trifluoroacetate]
15 | 8480 1/s per M | COCCn1c(-c2cc(C(C)C)c(F)cc2OC)cc(=O)[nH]c1=S [Example 344, 6-(4-fluoro-5-isopropyl-2-methoxyphenyl)-1-(2-methoxyethyl)-2-thioxo-2,3-dihydropyrimidin-4(1H)-one]

Continued, compound first:

Row | Compound | MPO kinact/Ki
16 | COc1ccc(-c2cc(=O)[nH]c(=S)n2CCNC(=N)NC#N)c(OC)c1 [Example 136, 1-cyano-3-{2-[6-(2,4-dimethoxyphenyl)-4-oxo-2-thioxo-3,4-dihydropyrimidin-1(2H)-yl]ethyl}guanidine] | 1920 1/s per M
17 | NCCCn1c(-c2ccccc2OCCO)cc(=O)[nH]c1=S [Example 88, 1-(3-aminopropyl)-6-[2-(2-hydroxyethoxy)phenyl]-2-thioxo-2,3-dihydropyrimidin-4(1H)-one hydrochloride] | 898 1/s per M
18 | COc1ccc(-c2cc(=O)[nH]c(=S)n2CCN)c(OC)c1 [Example 6, 1-(2-aminoethyl)-6-(2,4-dimethoxyphenyl)-2-thioxo-2,3-dihydropyrimidin-4(1H)-one hydrochloride] | 12900 1/s per M
19 | COc1cc(F)ccc1-c1cc(=O)[nH]c(=S)n1CC(N)=O [Example 56, 2-[6-(4-fluoro-2-methoxyphenyl)-4-oxo-2-thioxo-3,4-dihydropyrimidin-1(2H)-yl]acetamide] | 4770 1/s per M
20 | COCCn1c(-c2cccc(O)c2)cc(=O)[nH]c1=S [Example 287] | 2130 1/s per M
21 | COc1ccc(-c2cc(=O)[nH]c(=S)n2CC(C)C(N)=O)c(OC)c1 (stereo not drawn) [Example 217, 3-[6-(2,4-dimethoxyphenyl)-4-oxo-2-thioxo-3,4-dihydropyrimidin-1(2H)-yl]-2-methylpropanamide] | 3940 1/s per M
22 | COc1ccc(-c2cc(=O)[nH]c(=S)n2C[C@@H]2CCCNC2)c(OC)c1 [Example 151, 6-(2,4-dimethoxyphenyl)-1-[(3R)-piperidin-3-ylmethyl]-2-thioxo-2,3-dihydropyrimidin-4(1H)-one hydrochloride] | 3740 1/s per M
23 | COCCn1c(-c2ccco2)cc(=O)[nH]c1=S [Example 277, 6-(2-furyl)-1-(2-methoxyethyl)-2-thioxo-2,3-dihydropyrimidin-4(1H)-one] | 767 1/s per M
24 | COc1ccc(Cl)cc1-c1cc(=O)[nH]c(=S)n1CC(N)=O [Example 1, 2-(6-(5-Chloro-2-methoxyphenyl)-4-oxo-2-thioxo-3,4-dihydropyrimidin-1(2H)-yl)acetamide] | 11600 1/s per M
25 | COc1cc(OC)c(-c2cc(=O)[nH]c(=S)n2CC(N)=O)cc1F [Example 107, 2-[6-(5-fluoro-2,4-dimethoxyphenyl)-4-oxo-2-thioxo-3,4-dihydropyrimidin-1(2H)-yl]acetamide] | 1280 1/s per M
26 | COCCn1c(-c2cccc(F)c2)cc(=O)[nH]c1=S [Example 289, 6-(3-fluorophenyl)-1-(2-methoxyethyl)-2-thioxo-2,3-dihydropyrimidin-4(1H)-one] | 1580 1/s per M
27 | COc1ccc(-c2cc(=O)[nH]c(=S)n2CC2CCNC2)c(OC)c1 (stereo not drawn) [Example 212, 6-(2,4-dimethoxyphenyl)-1-(pyrrolidin-3-ylmethyl)-2-thioxo-2,3-dihydropyrimidin-4(1H)-one hydrochloride] | 7590 1/s per M
28 | COc1ccc(Cl)cc1-c1cc(=O)[nH]c(=S)n1CCCN=C(N)N [Example 133, 2-{3-[6-(5-chloro-2-methoxyphenyl)-4-oxo-2-thioxo-3,4-dihydropyrimidin-1(2H)-yl]propyl} guanidine] | 15300 1/s per M

Same assay, conditions: Table 1A, 2 μM H2O2, pH 7.4

Row | MPO kinact/Ki | Compound
29 | 7370 1/s per M | COc1ccc(OCCO)c(-c2cc(=O)[nH]c(=S)n2CCO)c1 [Example 379, 6-[2-(2-hydroxyethoxy)-5-methoxyphenyl]-1-(2-hydroxyethyl)-2-thioxo-2,3-dihydropyrimidin-4(1H)-one]
30 | 7350 1/s per M | COc1ccc(-c2cc(=O)[nH]c(=S)n2CC(=O)NCCNCC2CC2)c(OC)c1 [Example 445, N-{2-[(cyclopropylmethyl)amino]ethyl}-2-[6-(2,4-dimethoxyphenyl)-4-oxo-2-thioxo-3,4-dihydropyrimidin-1(2H)-yl]acetamide]
31 | 13300 1/s per M | COc1ccc(-c2cc(=O)[nH]c(=S)n2CCCNC(=N)N)c(OCCO)c1 [Example 403, 1-(3-{6-[2-(2-hydroxyethoxy)-4-methoxyphenyl]-4-oxo-2-thioxo-3,4-dihydropyrimidin-1(2H)-yl}propyl)guanidine]
32 | 4020 1/s per M | COc1ccc(-c2cc(=O)[nH]c(=S)n2CC(=O)N[C@@H](C)CN)c(OC)c1 [Example 394, N-[(2S)-1-aminopropan-2-yl]-2-[6-(2,4-dimethoxyphenyl)-4-oxo-2-thioxo-3,4-dihydropyrimidin-1(2H)-yl]acetamide]
33 | 18700 1/s per M | N=C(N)NCCCn1c(-c2cc(F)ccc2OCCO)cc(=O)[nH]c1=S [Example 407, 1-(3-{6-[5-fluoro-2-(2-hydroxyethoxy)phenyl]-4-oxo-2-thioxo-3,4-dihydropyrimidin-1(2H)-yl}propyl)guanidine]
34 | 11300 1/s per M | COc1ccc(F)cc1-c1cc(=O)[nH]c(=S)n1CCCN(C)C(=N)N [Example 375, 1-{3-[6-(5-fluoro-2-methoxyphenyl)-4-oxo-2-thioxo-3,4-dihydropyrimidin-1(2H)yl]propyl}-1-methylguanidine]
35 | 11600 1/s per M | COc1ccc(-c2cc(=O)[nH]c(=S)n2CCNC(=O)NC(=N)N)c(OC)c1 [Example 452, 1-carbamimidoyl-3-{2-[6-(2,4-dimethoxyphenyl)-4-oxo-2-thioxo-3,4-dihydropyrimidin-1(2H)-yl]ethyl}urea]
36 | 6980 1/s per M | COc1ccc(-c2cc(=O)[nH]c(=S)n2CC(=O)NC[C@@H](C)N)c(OC)c1 [Example 395, N-[(2R)-2-aminopropyl]-2-[6-(2,4-dimethoxyphenyl)-4-oxo-2-thioxo-3,4-dihydropyrimidin-1(2H)-yl]acetamide]
